Test results reported in ChEMBL document CHEMBL4610101, “Antimalarial Eudesmane Sesquiterpenoids from Dobinea delavayi” (2020).
Active and inactive are the calls of the source. No cut-off for these calls is given here.

What was measured:
[1] = tested on: Plasmodium yoelii; test: (§1) Antimalarial activity against Plasmodium yoelii BY265RFP infected in Kunming mouse assessed as inhibition of parasitemia at 10 mg/kg/day, ig administered for 4 days starting from 3 hrs post infection and measured at 4 days post infection by Wright-Giemsa staining based microscopic assay relative to control; assay type: functional; settings: po
[2] = tested on: Mus musculus; test: (§2) Immunomodulatory activity in Kunming mouse infected with Plasmodium yoelii BY265RFP assessed as decrease in IgG at 30 mg/kg/day, ig administered for 4 days starting from 3 hrs post infection and measured at 4 days post infection by FACSCalibur flow cytometry; assay type: functional, organism-based
[3] = tested on: Mus musculus; test: as §2, with “proportion of splenic CD4+CD25+ Tregs within CD4+ cells” for “decrease in IgG”, “15” for “30”, “cytometry (reference value: 11.2 +/- 0.5%)” for “cytometry”; assay type: functional
[4] = tested on: Plasmodium yoelii; test: Antimicrobial activity against Plasmodium yoelii BY265RFP infected in Kunming mouse assessed as recovery of erythrocyte at 15 to 30 mg/kg/day, ig administered for 4 days starting from 3 hrs post infection and measured at 4 days post infection; assay type: functional, organism-based
[5] = tested on: Mus musculus; test: as §2, with “proportion of splenic CD4+CD25+ Tregs within CD4+ cells” for “decrease in IgG”, “cytometry (reference value: 11.2 +/- 0.5%)” for “cytometry”; assay type: functional
[6] = tested on: Plasmodium yoelii; test: Antimicrobial activity against Plasmodium yoelii BY265RFP infected in Kunming mouse assessed as recovery of abdominal temperature at 15 to 30 mg/kg/day, ig administered for 4 days starting from 3 hrs post infection and measured at 5 days post infection; assay type: functional, organism-based
[7] = tested on: Mus musculus; test: as §2, with “proportion of splenic CD4+CD25+ Tregs within CD4+ cells” for “decrease in IgG”, “10” for “30”, “cytometry (reference value: 11.2 +/- 0.5%)” for “cytometry”; assay type: functional
[8] = tested on: Mus musculus; test: Immunomodulatory activity in Kunming mouse infected with Plasmodium yoelii BY265RFP assessed as decrease in IL-10 at 30 mg/kg/day, ig administered for 4 days starting from 3 hrs post infection and measured at 4 days post infection by FACSCalibur flow cytometry; assay type: functional, organism-based
[9] = tested on: Plasmodium yoelii; test: Disruption of mitochondrial membrane potential in Plasmodium yoelii BY265RFP infected in mouse erythrocytes assessed as red/green fluorescence ratio at 3 uM incubated for 12 hrs by JC1 staining based laser-scanning confocal microscopic analysis (reference value: 1.55 +/- 0.08); assay type: functional
[10] = tested on: Plasmodium yoelii; test: Antimicrobial activity against Plasmodium yoelii BY265RFP infected in Kunming mouse assessed as increase in hemoglobin level at 15 to 30 mg/kg/day, ig administered for 4 days starting from 3 hrs post infection and measured at 5 days post infection; assay type: functional, organism-based
[11] = tested on: Plasmodium yoelii; test: Disruption of mitochondrial membrane potential in Plasmodium yoelii BY265RFP infected in mouse erythrocytes assessed as red/green fluorescence ratio at 0.03 uM incubated for 12 hrs by JC1 staining based laser-scanning confocal microscopic analysis (reference value: 1.55 +/- 0.08); assay type: functional
[12] = tested on: Plasmodium yoelii; test: as §1, with “15” for “10”; assay type: functional; settings: po
[13] = tested on: Mus musculus; test: Immunomodulatory activity in Kunming mouse infected with Plasmodium yoelii BY265RFP assessed as increase in IFN-gamma at 30 mg/kg/day, ig administered for 4 days starting from 3 hrs post infection and measured at 4 days post infection by FACSCalibur flow cytometry; assay type: functional, organism-based
[14] = tested on: Mus musculus; test: Immunomodulatory activity in Kunming mouse infected with Plasmodium yoelii BY265RFP assessed as increase in IL-12 at 30 mg/kg/day, ig administered for 4 days starting from 3 hrs post infection and measured at 4 days post infection by FACSCalibur flow cytometry; assay type: functional, organism-based
[15] = tested on: Plasmodium yoelii; test: Induction of intracellular ROS production in Plasmodium yoelii BY265RFP infected in mouse erythrocytes at 0.03 to 3 uM after 12 hrs by DCFH-DA staining based laser-scanning confocal microscopic analysis; assay type: functional, organism-based
[16] = tested on: Plasmodium yoelii; test: Antimicrobial activity against Plasmodium yoelii BY265RFP infected in Kunming mouse assessed as relief from hepatomegaly at 15 to 30 mg/kg/day, ig administered for 4 days starting from 3 hrs post infection and measured at 4 days post infection; assay type: functional, organism-based
[17] = tested on: Plasmodium yoelii; test: as §1, with “30” for “10”; assay type: functional; settings: po
[18] = tested on: Plasmodium yoelii; test: Disruption of mitochondrial membrane potential in Plasmodium yoelii BY265RFP infected in mouse erythrocytes assessed as red/green fluorescence ratio at 0.3 uM incubated for 12 hrs by JC1 staining based laser-scanning confocal microscopic analysis (reference value: 1.55 +/- 0.08); assay type: functional
[19] = tested on: Hemozoin; test: Inhibition of beta-hematin formation incubated for 5 hrs
[20] = tested on: Plasmodium yoelii; test: as §1, with “50” for “10”; assay type: functional; settings: po

## CCN(CC)CCCC(C)Nc1ccnc2cc(Cl)ccc12 (stereo not drawn) [CHLOROQUINE PHOSPHATE]
[1]
  inhibition in vivo at 10 mg/kg/day: 97.9%

## C/C=C(/C)C(=O)O[C@H]1CC[C@]2(C)C[C@@H](C(C)=O)C[C@H]2[C@]1(C)OC(C)=O
[2]
  Activity: Active
[3]
  Activity: 8.6%
[4]
  Activity: Active
[5]
  Activity: 7.6%
[6]
  Activity: Active
[7]
  Activity: 6.7%
[8]
  Activity: Active
[9]
  Ratio: 1.22
[10]
  Activity: Active
[11]
  Ratio: 1.51
[12]
  inhibition in vivo at 15 mg/kg/day: 33.8%
[13]
  Activity: Active
[14]
  Activity: Active
[15]
  Activity: Active
[16]
  Activity: Active
[17]
  inhibition in vivo at 30 mg/kg/day: 59.1%
[18]
  Ratio: 1.35
[19]
  inhibition: inactive

## C/C=C(/C)C(=O)O[C@H]1CC[C@]2(C)C[C@]3(O)OC(=O)C(C)=C3C[C@H]2[C@]1(C)O
[17]
  inhibition in vivo at 30 mg/kg/day: -1.9%

## C/C=C(/C)C(=O)O[C@H]1CC[C@]2(C)CC(=O)C[C@H]2[C@]1(C)OC(C)=O
[17]
  inhibition in vivo at 30 mg/kg/day: 18.5%

## C/C=C(/C)C(=O)O[C@H]1CC[C@]2(C)C[C@]3(O)OC(=O)C(C)=C3C[C@H]2[C@]1(C)OC(C)=O
[17]
  inhibition in vivo at 30 mg/kg/day: 14.5%

## C[C@@H]1CC[C@H]2[C@@H](C)C(=O)O[C@@H]3O[C@@]4(C)CC[C@@H]1[C@]32OO4 [ARTEMISININ]
[20]
  inhibition in vivo at 50 mg/kg/day: 54.4%
[9]
  Ratio: 1.18
[11]
  Ratio: 1.43
[18]
  Ratio: 1.33

## C/C=C(/C)C(=O)O[C@H]1CC[C@]2(C)C[C@@H]3OC(=O)C(C)=C3C[C@H]2[C@]1(C)OC(C)=O
[17]
  inhibition in vivo at 30 mg/kg/day: 15%

## C/C=C(/C)C(=O)O[C@H]1CC[C@]2(C)CC(=O)[C@@H](C(C)C(=O)O)C[C@H]2[C@]1(C)O (stereo partly drawn)
[17]
  inhibition in vivo at 30 mg/kg/day: 3.9%
